The values below come from patent US10093630B2, “Pyrazole compounds and methods of making and using same” (ABIDE THERAPEUTICS, INC., priority 2014, dated 2018).

Like-named read-outs stand apart in the source and are kept apart here. A value given as a limit tells only on which side of the number the result lay.

Holding throughout (assay): In vitro competitive activity-based protein profiling (gel-based, FP-Rh or HT-01 probe)
What all share (assay type): biochemical

One test addresses T1, ABHD6 (Mus musculus, UniProt Q8R2Y0).
T1 construct: Proteomes (mouse brain membrane fraction or cell lysates); from tissue; host or cells: mouse brain membrane fraction (or cell lysates, not specified)
T1 sequence (Q8R2Y0 1-336): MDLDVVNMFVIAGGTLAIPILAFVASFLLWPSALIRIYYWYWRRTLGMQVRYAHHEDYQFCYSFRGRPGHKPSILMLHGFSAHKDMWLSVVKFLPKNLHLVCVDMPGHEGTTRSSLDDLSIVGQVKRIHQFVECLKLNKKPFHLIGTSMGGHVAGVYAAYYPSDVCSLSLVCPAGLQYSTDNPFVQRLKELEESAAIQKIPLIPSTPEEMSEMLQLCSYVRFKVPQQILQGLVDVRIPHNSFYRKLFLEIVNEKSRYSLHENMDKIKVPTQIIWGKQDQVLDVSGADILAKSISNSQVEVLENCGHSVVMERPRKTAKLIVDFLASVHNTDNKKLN
The following applies: for inhibition at 1 µM: 1 μM inhibitor, read-out: % Inhibition at 1 μM, C = ABHD6; for IC50: mouse brain membrane fraction or cell lysates, 30 min preincubation at 37° C., read-out: Mouse (IC50 value, nM) ABHD6; for inhibition at 10 µM: 10 μM inhibitor, read-out: % Inhibition at 10 μM, C = ABHD6. Summed up:
(§1)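 Gel-based read-out: fluorescent band intensity after SDS-PAGE reflected remaining hydrolase activity. Inhibitors were preincubated 30 min at 37° C with 1.0 mg/mL mouse brain membrane or lysate proteome before a further 30 min at 37° C with FP-Rh or HT-01 probe.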

For another test, the target named is T2, FAAH (Mus musculus, UniProt O08914).
T2 construct: Proteomes (mouse brain membrane fraction or cell lysates); from tissue; host or cells: mouse brain membrane fraction (or cell lysates, not specified)
T2 sequence (O08914 1-579): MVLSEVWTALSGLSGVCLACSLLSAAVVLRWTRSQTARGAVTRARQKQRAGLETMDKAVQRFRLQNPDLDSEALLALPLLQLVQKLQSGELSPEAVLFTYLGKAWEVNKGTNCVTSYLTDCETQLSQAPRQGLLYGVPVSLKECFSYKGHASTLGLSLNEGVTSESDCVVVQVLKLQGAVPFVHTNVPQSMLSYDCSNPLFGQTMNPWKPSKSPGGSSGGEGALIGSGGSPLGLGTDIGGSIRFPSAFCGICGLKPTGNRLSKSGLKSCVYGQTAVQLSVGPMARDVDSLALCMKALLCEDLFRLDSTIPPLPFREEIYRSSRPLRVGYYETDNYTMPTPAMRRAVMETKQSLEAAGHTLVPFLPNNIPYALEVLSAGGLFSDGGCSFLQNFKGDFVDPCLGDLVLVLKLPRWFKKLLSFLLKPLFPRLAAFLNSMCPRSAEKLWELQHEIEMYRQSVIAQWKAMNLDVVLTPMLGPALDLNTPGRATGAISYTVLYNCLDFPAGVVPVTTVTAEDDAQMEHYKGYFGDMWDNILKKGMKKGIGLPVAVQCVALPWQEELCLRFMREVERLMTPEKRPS
As to conditions: for inhibition at 1 µM: 1 μM inhibitor, read-out: % Inhibition at 1 μM, B = FAAH; for IC50: mouse brain membrane fraction or cell lysates, 30 min preincubation at 37° C., read-out: Mouse (IC50 value, nM) FAAH; for inhibition at 10 µM: 10 μM inhibitor, read-out: % Inhibition at 10 μM, B = FAAH. In short, it runs like this:
as §1

The next test addresses T3, MAGL (Mus musculus, UniProt O35678).
T3 construct: Proteomes (mouse brain membrane fraction or cell lysates); from tissue; host or cells: mouse brain membrane fraction (or cell lysates, not specified)
T3 sequence (O35678 1-303): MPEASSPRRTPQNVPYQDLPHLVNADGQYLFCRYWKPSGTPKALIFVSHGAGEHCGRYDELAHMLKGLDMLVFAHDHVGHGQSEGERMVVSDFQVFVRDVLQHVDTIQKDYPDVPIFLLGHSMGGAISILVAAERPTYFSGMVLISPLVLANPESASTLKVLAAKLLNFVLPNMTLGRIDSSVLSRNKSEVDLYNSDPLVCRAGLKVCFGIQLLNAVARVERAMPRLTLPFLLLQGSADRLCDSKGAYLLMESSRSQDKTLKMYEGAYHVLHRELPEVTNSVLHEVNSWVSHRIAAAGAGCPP
The following applies: for inhibition at 1 µM: 1 μM inhibitor; for IC50: mouse brain membrane fraction or cell lysates, 30 min preincubation at 37° C., read-out: Mouse (IC50 value, nM) MAGL; for inhibition at 10 µM: 10 μM inhibitor. In short, it runs like this: as §1

The next test addresses T4, PLA2G7 (Mus musculus, UniProt Q60963).
T4 construct: Proteomes (mouse brain membrane fraction or cell lysates); from tissue; host or cells: mouse brain membrane fraction (or cell lysates, not specified)
T4 sequence (Q60963 22-440): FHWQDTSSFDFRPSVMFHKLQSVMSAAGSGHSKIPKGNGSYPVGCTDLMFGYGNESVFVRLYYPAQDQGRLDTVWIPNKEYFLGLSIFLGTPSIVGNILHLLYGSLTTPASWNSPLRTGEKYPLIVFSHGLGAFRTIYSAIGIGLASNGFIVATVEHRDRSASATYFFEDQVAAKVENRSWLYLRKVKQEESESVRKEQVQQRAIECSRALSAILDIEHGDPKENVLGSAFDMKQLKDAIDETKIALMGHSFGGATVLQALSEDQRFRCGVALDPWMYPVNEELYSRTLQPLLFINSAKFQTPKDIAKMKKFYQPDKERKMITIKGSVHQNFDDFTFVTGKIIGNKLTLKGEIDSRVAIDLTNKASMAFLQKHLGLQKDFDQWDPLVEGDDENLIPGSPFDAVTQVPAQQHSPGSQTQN
As to conditions: for inhibition at 1 µM: 1 μM inhibitor, read-out: % Inhibition at 1 μM, D = PLA2G7; for IC50: mouse brain membrane fraction or cell lysates, 30 min preincubation at 37° C.; for inhibition at 10 µM: 10 μM inhibitor, read-out: % Inhibition at 10 μM, D = PLA2G7. In short, it runs like this: as §1

In general, inhibition refers to the percentage by which the read-out fell short of the control. What is called IC50 is the concentration that gives 50% inhibition. Take `CCN(Cc1ccc(N2CCOCC2)cc1)C(=O)n1cc(C(F)(F)F)cn1` [Example 264, N-Ethyl-N-(4-morpholinobenzyl)-4-(trifluoromethyl)-1H-pyrazole-1-carboxamide]: the inhibition at 1 µM on ABHD6 (gel-based competitive ABPP) is less than 25%; at FAAH (gel-based competitive ABPP) it was greater than 75%; on MAGL (gel-based competitive ABPP), greater than 75%; on PLA2G7 (gel-based competitive ABPP) it was less than 25%. Further, the half-inhibitory concentration (IC50) at ABHD6 was greater than 1000 nM; on FAAH it was less than 100 nM; at MAGL it was 100 to 1000 nM; on PLA2G7, greater than 1000 nM.

As to `O=C(c1cnn(C(=O)N2CCN(Cc3ccncc3)CC2)c1)N1CCCCC1` [Example 70, Piperidin-1-yl(1-(4-(pyridin-4-ylmethyl)piperazine-1-carbonyl)-1H-pyrazol-4-yl)methanone], the inhibition at 1 µM on ABHD6 was 25 to 75%; on FAAH it was less than 25%; at MAGL, less than 25%; at PLA2G7 it was greater than 75%. In addition, the inhibition at 10 µM on ABHD6 is greater than 75%; on FAAH, 25 to 75%; on MAGL it was less than 25%; on PLA2G7 it was greater than 75%.

For the molecule `Cc1cc(N2CCN(C(=O)n3cc(C#N)cn3)CC2)c2ccccc2n1` [Example 209, 1-(4-(2-Methylquinolin-4-yl)piperazine-1-carbonyl)-1H-pyrazole-4-carbonitrile], the inhibition at 1 µM at ABHD6, at FAAH, on MAGL and on PLA2G7 was greater than 75% each time. The inhibition at 10 µM at ABHD6, on FAAH, on MAGL and on PLA2G7 was greater than 75% each time.

As for `O=C(N1CCN(c2cccc(N3CCOCC3)c2)CC1)n1cc(C(F)(F)F)cn1` [Example 237, (4-(3-Morpholinophenyl)piperazin-1-yl)(4-(trifluoromethyl)-1H-pyrazol-1-yl)methanone], the inhibition at 1 µM at ABHD6, on FAAH, at MAGL and at PLA2G7 was greater than 75% each time. Moreover, the inhibition at 10 µM at ABHD6, at FAAH, on MAGL and on PLA2G7 was greater than 75% throughout.

As for `CCN(Cc1ccc(N2CCOCC2)cc1)C(=O)n1cc(Cl)cn1` [Example 267, 4-Chloro-N-ethyl-N-(4-morpholinobenzyl)-1H-pyrazole-1-carboxamide], the inhibition at 1 µM on ABHD6 (gel-based competitive ABPP) was less than 25%; on FAAH (gel-based competitive ABPP) it was 25 to 75%; at MAGL (gel-based competitive ABPP), 25 to 75%; at PLA2G7 (gel-based competitive ABPP), less than 25%.

Consider `CC(=O)N1CCN(C(=O)n2cc(C(F)(F)F)cn2)CC1` [Example 149, 1-(4-(4-(Trifluoromethyl)-1H-pyrazole-1-carbonyl)piperazin-1-yl)ethanone], for which the inhibition at 1 µM at ABHD6 is less than 25%; at FAAH, less than 25%; on MAGL it was less than 25%; at PLA2G7, greater than 75%. The inhibition at 10 µM is 25 to 75% at ABHD6, less than 25% at FAAH, 25 to 75% on MAGL and greater than 75% on PLA2G7.

As to `CCN(Cc1ccc(C)cc1)C(=O)n1cc(C(F)(F)F)cn1` [Example 256, N-Ethyl-N-(4-methylbenzyl)-4-(trifluoromethyl)-1H-pyrazole-1-carboxamide], the inhibition at 1 µM was less than 25% on ABHD6 (gel-based competitive ABPP), greater than 75% on FAAH (gel-based competitive ABPP), 25 to 75% at MAGL (gel-based competitive ABPP) and less than 25% at PLA2G7 (gel-based competitive ABPP). Besides, the IC50 is greater than 1000 nM at ABHD6, less than 100 nM at FAAH, greater than 1000 nM at MAGL and greater than 1000 nM at PLA2G7.

As to `O=C(NCc1ccc2ccccc2c1)n1cccn1` [Example 43, N-(Naphthalen-2-ylmethyl)-1H-pyrazole-1-carboxamide], the inhibition at 1 µM at ABHD6, on FAAH, on MAGL and on PLA2G7 was less than 25% throughout. Further, the inhibition at 10 µM at ABHD6 was less than 25%; on FAAH it was greater than 75%; at MAGL, 25 to 75%; on PLA2G7, less than 25%.

As to `Cc1cc(N2CCN(C(=O)n3cc(-c4ccccc4)cn3)CC2)c2ccccc2n1` [Example 207, (4-(2-Methylquinolin-4-yl)piperazin-1-yl)(4-phenyl-1H-pyrazol-1-yl)methanone], the inhibition at 1 µM at ABHD6 was greater than 75%; at FAAH, greater than 75%; on MAGL it was 25 to 75%; at PLA2G7 it was 25 to 75%. Besides, the inhibition at 10 µM on ABHD6, at FAAH, on MAGL and on PLA2G7 was greater than 75% in each case.

With `O=C(N1CCN(Cc2cccc(N3CCCC3)c2)CC1)n1cc(C(F)(F)F)cn1` [Example 273, (4-(3-(Pyrrolidin-1-yl)benzyl)piperazin-1-yl)(4-(trifluoromethyl)-1H-pyrazol-1-yl)methanone], the inhibition at 1 µM at ABHD6 (gel-based competitive ABPP), on FAAH (gel-based competitive ABPP), at MAGL (gel-based competitive ABPP) and on PLA2G7 (gel-based competitive ABPP) was greater than 75% each time. Further, the 50% inhibitory concentration (IC50) at ABHD6, on FAAH, on MAGL and at PLA2G7 was less than 100 nM throughout.

As to `CCN(Cc1cccc(Cl)c1)C(=O)n1cc(C#N)cn1` [Example 243, N-(3-chlorobenzyl)-4-cyano-N-ethyl-1H-pyrazole-1-carboxamide], the inhibition at 1 µM on ABHD6 was greater than 75%; on FAAH, greater than 75%; on MAGL, greater than 75%; at PLA2G7, less than 25%. Also, the concentration for half-maximal inhibition (IC50) on ABHD6 is greater than 1000 nM; at FAAH, less than 100 nM; at MAGL it was 100 to 1000 nM; at PLA2G7, greater than 1000 nM.
